Experimental data from patent publication US20110070215A1 (priority 2009, published 2011).

Tested on: DU-145 cells
Assay type: cell-based, human

C=C1[C@@H](C)[C@H]2[C@H](Cc3ccccc3)NC(=O)[C@]23[C@H](OC(C)=O)/C=C/[C@@](C)(O)C(=O)[C@@H](C)C/C=C/[C@H]3[C@@H]1O [Cytochalasin-D]
Relative Wound Density at 24 Hours, Mean: 3.3 ± 0.2
Relative Wound Density at 24 Hours, Percent Relative to Media: 4%
effect on cell migration: did not migrate
